Results on 48 compounds are retold here after ChEMBL document CHEMBL4742385 (2019).

For experiment [1], the target named is Cyclin-C/Cyclin-dependent kinase 19 (Homo sapiens) (UniProt Q9BWU1+P24863). The experiment in a line: Inhibition of humanGST-tagged CDK19/Cyc C expressed in Sf21 cells at 1 uM measured after 1 hr by fluorescence plate reader relative to control.
The subject of experiment [2] is RPMI-8226. The experiment in a line: Antiproliferative activity against human RPMI-8226 assessed as inhibition of cell growth at 1 uM after 8 days measured after Celltiter-Glo assay relative to control. The experiment is classed as functional. Particulars: Homo sapiens, RPMI-8226, 192 h, time 8 day. (In ATP-based viability assays light output follows the ATP content of the culture.)

For experiment [3], the target named is CDK8/Cyclin C (Homo sapiens) (UniProt P49336+P24863). The experiment in a line: Inhibition of human CDK8/Cyc C expressed in Sf21 cells at 1 uM measured after 1 hr by fluorescence plate reader relative to control.

What is called inhibition is the drop in the measured response relative to a control, in per cent. With `Cn1cc(-c2ccncc2/C=C/C(=O)Nc2ccc(CN3CCC4(CC3)COC4)cc2)cn1`, the inhibition in experiment [1] and in experiment [3] was 97% each time. The inhibition at 1 µM in experiment [2] is 60%.

`Cc1ccc(NC(=O)/C=C/c2cnccc2-c2cn[nH]c2)c(F)c1`: the values for the inhibition in experiment [1] and in experiment [3] were 97% and 100%, respectively. Also, the inhibition at 1 µM in experiment [2] was 59%.

With `O=C(/C=C/c1cnccc1-c1cnn(C(F)F)c1)Nc1ccc(CN2CCOCC2)cc1`, the inhibition came out at 100% in experiment [1] and 98% in experiment [3]. For the same compound, the inhibition at 1 µM in experiment [2] was determined as 53%.

Consider `Cn1cc(-c2ccncc2/C=C/C(=O)Nc2ccc(CN3CC(F)(F)C3)cc2)cn1`, for which the inhibition in experiment [1] and in experiment [3] was 99% throughout. The inhibition at 1 µM in experiment [2] was determined as 48%.

As to `Cn1cc(-c2ccncc2/C=C/C(=O)Nc2ccc(CN3CCC(F)(F)C3)cc2)cn1`, the inhibition in experiment [1] came out at 100%; in experiment [3], 99%. The inhibition at 1 µM in experiment [2] turned out to be 62%.

For `Cn1cc(-c2ccncc2/C=C/C(=O)Nc2ccc(Cn3ccnc3)cc2)cn1`, the results for the inhibition in experiment [1] and in experiment [3] were 98% and 102%, respectively. The inhibition at 1 µM in experiment [2] stood at 64%.

Consider `CC(C)(O)Cc1ccc(NC(=O)/C=C/c2cnccc2-c2cnn(C3CC3)c2)cc1`, for which the inhibition was found to be 103% in experiment [1] and 100% in experiment [3]. Also, the inhibition at 1 µM in experiment [2] turned out to be 61%.

As for `COc1ccsc1-c1ccncc1/C=C/C(=O)Nc1ccc(CN2CCOCC2)cc1`, the inhibition came out at 100% in experiment [1] and 97% in experiment [3]. Further, the inhibition at 1 µM in experiment [2] was found to be 52%.

For `COC1CN(Cc2ccc(NC(=O)/C=C/c3cncc(F)c3-c3cnn(C4CC4)c3)cc2)C1`, the inhibition turned out to be 100% in experiment [1] and 101% in experiment [3]. The inhibition at 1 µM in experiment [2] worked out at 63%.

Regarding `O=C(/C=C/c1cnccc1-c1cnn(C2CCC2)c1)Nc1ccc(CN2CCOCC2)cc1`, the inhibition in experiment [1] and in experiment [3] was 96% each time. The inhibition at 1 µM in experiment [2] is 54%.

For `Cn1cc(-c2c(F)cncc2/C=C/C(=O)Nc2ccc3c(c2)CN(CC(C)(F)F)C3)cn1`, the inhibition in experiment [1] came to 100%; in experiment [3], 106%. Further, the inhibition at 1 µM in experiment [2] came out at 63%.

For `Cn1cc(-c2ccncc2/C=C/C(=O)Nc2ccc(CN3CC4CCC(C3)O4)cc2)cn1`, the inhibition turned out to be 97% in experiment [1] and 96% in experiment [3]. Moreover, the inhibition at 1 µM in experiment [2] stood at 61%.

Consider `COc1ccc(-c2ccncc2/C=C/C(=O)Nc2ccc(CN3CCOCC3)cc2)s1`, for which the figures for the inhibition in experiment [1] and in experiment [3] were 96% and 93%, respectively. The inhibition at 1 µM in experiment [2] came to 58%.

Regarding `CCN1CCc2cc(NC(=O)/C=C/c3cnccc3-c3cnn(C)c3)ccc2C1`, the inhibition is 95% in experiment [1] and 96% in experiment [3]. In addition, the inhibition at 1 µM in experiment [2] worked out at 58%.

Turning to `O=C(/C=C/c1cnccc1-c1cnn(C2CC2)c1)Nc1ccc(CN2CC(F)(F)C2)cc1F`, the results for the inhibition in experiment [1] and in experiment [3] were 74% and 105%, respectively. In experiment [2], the inhibition at 1 µM is 51%.

As for `Cn1cc(-c2ccncc2/C=C/C(=O)Nc2ccc3c(c2)CN(CC(F)F)C3)cn1`, the inhibition turned out to be 94% in experiment [1] and 105% in experiment [3]. For the same compound, in experiment [2], the inhibition at 1 µM worked out at 63%.

Consider `O=C(/C=C/c1cnccc1-c1cncs1)Nc1ccc(CN2CCOCC2)cc1`, for which the inhibition in experiment [1] is 97%; in experiment [3] it was 94%. For the same compound, the inhibition at 1 µM in experiment [2] worked out at 52%.

On to `CC(C)(F)Cc1ccc(NC(=O)/C=C/c2cnccc2-c2cnn(C3CC3)c2)cc1`, for which the inhibition in experiment [1] was found to be 95%; in experiment [3] it was 102%. In addition, the inhibition at 1 µM in experiment [2] was determined as 61%.

With `Cn1cc(-c2ccncc2/C=C/C(=O)Nc2ccc3ncsc3c2)cn1`, the inhibition in experiment [1] amounted to 90%; in experiment [3], 94%. Also, the inhibition at 1 µM in experiment [2] was found to be 53%.

Turning to `Cn1cc(-c2c(F)cncc2/C=C/C(=O)Nc2ccc3c(c2)CN(CC(F)(F)F)C3)cn1`, the inhibition was determined as 104% in experiment [1] and 106% in experiment [3]. For the same compound, in experiment [2], the inhibition at 1 µM turned out to be 56%.

For `Cn1cc(-c2ccncc2/C=C/C(=O)Nc2ccc3c(ccn3C)c2)cn1`, the results for the inhibition in experiment [1] and in experiment [3] were 99% and 98%, respectively. Moreover, in experiment [2], the inhibition at 1 µM turned out to be 55%.

As for `Cn1cc(-c2ccncc2/C=C/C(=O)Nc2ccc3c(c2)OCCO3)cn1`, the inhibition in experiment [1] stood at 97%; in experiment [3], 100%. In addition, the inhibition at 1 µM in experiment [2] turned out to be 59%.

Turning to `CCN1CCc2ccc(NC(=O)/C=C/c3cnccc3-c3cnn(C)c3)cc2C1`, the inhibition in experiment [1] is 95%; in experiment [3], 99%. In addition, the inhibition at 1 µM in experiment [2] worked out at 56%.

As to `O=C(/C=C/c1cnccc1-c1ccc2ncn(CC3CC3)c2c1)Nc1ccc(CN2CCOCC2)cc1`, the inhibition in experiment [1] is 96%; in experiment [3], 95%. Moreover, the inhibition at 1 µM in experiment [2] stood at 60%.

Regarding `CCn1cc(-c2ccncc2/C=C/C(=O)Nc2ccc(CN3CCOCC3)cc2)cn1`, the inhibition in experiment [1] is 100%; in experiment [3], 96%. In experiment [2], the inhibition at 1 µM is 63%.

Take `Cc1cc(NC(=O)/C=C/c2cnccc2-c2cnn(C)c2)ccc1CN1CCOCC1`: the inhibition was determined as 98% in experiment [1] and 96% in experiment [3]. Besides, the inhibition at 1 µM in experiment [2] was 58%.

As to `Cn1cc(-c2ccncc2/C=C/C(=O)Nc2ccc3c(c2)OCO3)cn1`, the inhibition in experiment [1] was 94%; in experiment [3], 96%. Further, in experiment [2], the inhibition at 1 µM worked out at 53%.

`CC(=O)n1cc(-c2ccncc2/C=C/C(=O)Nc2ccc(CN3CCOCC3)cc2)cn1`: the figures for the inhibition in experiment [1] and in experiment [3] were 101% and 96%, respectively. Moreover, the inhibition at 1 µM in experiment [2] was 65%.

In the case of `Cn1cc(-c2ccncc2/C=C/C(=O)Nc2ccc(CNCC(F)(F)C(F)(F)F)cc2)cn1`, the inhibition in experiment [1] worked out at 99%; in experiment [3], 101%. The inhibition at 1 µM in experiment [2] amounted to 56%.

With `Cn1cc(-c2c(F)cncc2/C=C/C(=O)Nc2ccc(CN3CCOCC3)cc2F)cn1`, the inhibition in experiment [1] was found to be 99%; in experiment [3] it was 98%. In addition, the inhibition at 1 µM in experiment [2] was 53%.

Consider `Cn1cc(-c2ccncc2/C=C/C(=O)Nc2ccc(CN3CCCC3CO)cc2)cn1` (centres undefined), for which the figures for the inhibition in experiment [1] and in experiment [3] were 93% and 104%, respectively. For the same compound, in experiment [2], the inhibition at 1 µM amounted to 52%.

Regarding `O=C(/C=C/c1cnccc1-c1cnn(C2CC2)c1)Nc1ccc(CN2CC3(COC3)C2)cc1`, the inhibition in experiment [1] is 98%; in experiment [3], 110%. Besides, the inhibition at 1 µM in experiment [2] stood at 56%.

For `Cn1cc(-c2ccncc2/C=C/C(=O)Nc2ccc(N3CC(F)(F)C3)cc2)cn1`, the inhibition in experiment [1] worked out at 99%; in experiment [3], 105%. Besides, the inhibition at 1 µM in experiment [2] came out at 50%.

For `Cn1cc(-c2ccncc2/C=C/C(=O)Nc2ccc(CN3CCOCC3)c(O)c2)cn1`, the inhibition was 99% in experiment [1] and 97% in experiment [3]. Moreover, the inhibition at 1 µM in experiment [2] was found to be 54%.

Consider `Cn1cc(-c2ccncc2/C=C/C(=O)Nc2cc(F)c(CN3CCOCC3)cc2F)cn1`, for which the inhibition in experiment [1] was determined as 91%; in experiment [3], 94%. Moreover, the inhibition at 1 µM in experiment [2] stood at 66%.

With `CC(C)(F)Cc1ccc(NC(=O)/C=C/c2cncc(F)c2-c2cnn(C3CC3)c2)cc1`, the inhibition is 101% in experiment [1] and 99% in experiment [3]. Moreover, the inhibition at 1 µM in experiment [2] stood at 62%.

Consider `C[C@@H]1CN(Cc2ccc(NC(=O)/C=C/c3cnccc3-c3cnn(C)c3)cc2)C[C@H](C)O1`, for which the inhibition amounted to 97% in experiment [1] and 101% in experiment [3]. Further, the inhibition at 1 µM in experiment [2] came to 58%.

In the case of `O=C(/C=C/c1cnccc1-c1cnn(Cc2ccccn2)c1)Nc1ccc(CN2CCOCC2)cc1`, the values for the inhibition in experiment [1] and in experiment [3] were 98% and 101%, respectively. The inhibition at 1 µM in experiment [2] was 57%.

Turning to `O=C(/C=C/c1cnccc1-c1ccc2[nH]cnc2c1)Nc1ccc(CN2CCOCC2)cc1`, the inhibition worked out at 101% in experiment [1] and 99% in experiment [3]. For the same compound, in experiment [2], the inhibition at 1 µM turned out to be 66%.

`Cn1cc(-c2ccncc2/C=C/C(=O)Nc2ccc3c(c2)CCN(CC(F)(F)F)C3)cn1`: the inhibition in experiment [1] amounted to 101%; in experiment [3] it was 98%. Besides, the inhibition at 1 µM in experiment [2] stood at 65%.

`Cn1cc(-c2ccncc2/C=C/C(=O)Nc2ccc(CC(C)(C)O)cc2)cn1`: the inhibition stood at 101% in experiment [1] and 99% in experiment [3]. The inhibition at 1 µM in experiment [2] is 62%.

On to `COCCn1cnc2ccc(-c3ccncc3/C=C/C(=O)Nc3ccc(CN4CCOCC4)cc3)cc21`, for which the inhibition worked out at 97% in experiment [1] and 103% in experiment [3]. Also, the inhibition at 1 µM in experiment [2] worked out at 62%.

As for `O=C(/C=C/c1cnccc1-c1cnn(CC2CC2)c1)Nc1ccc(CCN2CCOCC2)cc1`, the inhibition in experiment [1] came to 97%; in experiment [3], 94%. For the same compound, the inhibition at 1 µM in experiment [2] worked out at 58%.

On to `O=C(/C=C/c1cnccc1-c1cnn(CC2(F)CC2)c1)Nc1ccc(CN2CCOCC2)cc1`, for which the figures for the inhibition in experiment [1] and in experiment [3] were 101% and 99%, respectively. The inhibition at 1 µM in experiment [2] came to 57%.

In the case of `Cn1cc(-c2ccncc2/C=C/C(=O)Nc2ccc(Oc3ccncc3)cc2)cn1`, the inhibition came to 96% in experiment [1] and 95% in experiment [3]. Also, the inhibition at 1 µM in experiment [2] turned out to be 54%.

On to `O=C(/C=C/c1cnccc1-c1ccns1)Nc1ccc(CN2CCOCC2)cc1`, for which the inhibition was determined as 98% in experiment [1] and 101% in experiment [3]. In addition, in experiment [2], the inhibition at 1 µM was 54%.

As for `O=C(/C=C/c1cnccc1-c1cnn(C2CC2)c1)Nc1ccc2c(ccn2CC(F)(F)F)c1`, the figures for the inhibition in experiment [1] and in experiment [3] were 98% and 99%, respectively. For the same compound, the inhibition at 1 µM in experiment [2] is 57%.

For `Cn1cc(-c2ccncc2/C=C/C(=O)Nc2ccc(CN3CCOCC3)c(Cl)c2)cn1`, the inhibition in experiment [1] and in experiment [3] was 99% each time. In experiment [2], the inhibition at 1 µM was found to be 53%.
